Laboratory results taken from US20260078108A1, “SOLID FORMS OF A ROCK INHIBITOR” (REDX PHARMA PLC, priority 2022, published 2026).

Columns and labels:
PKN1/PRK1 = PKN1/PRK1 (Homo sapiens, UniProt Q16512); test: Kinase panel 33P-ATP filter assay, PKN1/PRK1; format: biochemical; settings: HCl salt tested; ATP Conc. 15 μM (Km); read-out: Compound IC50 (nM) PKN1/PRK1
Method: (§1) The HCl salts of S enantiomer and the R enantiomer of compound A were tested against a panel of kinases.
(§2) Compounds were received as powder and resuspended to 10 mM DMSO stock. Compounds were tested in 10-dose IC50 mode with a 3-fold serial dilution starting at 10 μM. Control compound, staurosporine, was tested in 10-dose IC50 mode with 4-fold serial dilution starting at 20 μM.
(§3) Reaction Conditions: Buffer Conditions: 20 mM HEPES ((4-(2-hydroxyethyl)-1-piperazineethanesulfonic acid; pH 7.5), 10 mM MgCl2, 1 mM EGTA (Ethyleneglycol-bis(p-aminoethyl)-N,N,N′,N′-tetraacetic Acid), 0.01% Brij35, 0.02 mg/ml BSA (Bovine serum albumin), 0.1 mM Na3VO4, 2 mM DTT (Dithiothreitol), 1% DMSO. Reaction Procedure: 1. Prepare indicated substrate in freshly prepared reaction buffer. 2. Deliver required cofactors to the substrate solution above. 3. Deliver indicated kinase into the substrate solution and mix gently. 4. Deliver compounds in DMSO into the kinase reaction mixture utilizing acoustic technology (Echo550). 5. Deliver ^33P-ATP (specific activity 0.01 μCi/μl final) into the reaction mixture to initiate the reaction. 6. Incubate kinase reaction for 120 minutes at room temperature. 7. […] Data Analysis: Kinase activity data were expressed as the percent remaining kinase activity in test samples compared to vehicle (dimethyl sulfoxide) reactions. […]

ROCK2 = ROCK2 (Homo sapiens, UniProt O75116); test: Activity against kinase ROCK2; format: biochemical; settings: comparison of enantiomers
PKCepsilon = biological target: T1, PKCepsilon (Homo sapiens, UniProt Q02156); test: Kinase panel 33P-ATP filter assay, PKCepsilon; format: biochemical; settings: HCl salt tested; ATP Conc. 10 μM (Km); read-out: Compound IC50 (nM) PKCepsilon
T1 sequence (Q02156 1-737): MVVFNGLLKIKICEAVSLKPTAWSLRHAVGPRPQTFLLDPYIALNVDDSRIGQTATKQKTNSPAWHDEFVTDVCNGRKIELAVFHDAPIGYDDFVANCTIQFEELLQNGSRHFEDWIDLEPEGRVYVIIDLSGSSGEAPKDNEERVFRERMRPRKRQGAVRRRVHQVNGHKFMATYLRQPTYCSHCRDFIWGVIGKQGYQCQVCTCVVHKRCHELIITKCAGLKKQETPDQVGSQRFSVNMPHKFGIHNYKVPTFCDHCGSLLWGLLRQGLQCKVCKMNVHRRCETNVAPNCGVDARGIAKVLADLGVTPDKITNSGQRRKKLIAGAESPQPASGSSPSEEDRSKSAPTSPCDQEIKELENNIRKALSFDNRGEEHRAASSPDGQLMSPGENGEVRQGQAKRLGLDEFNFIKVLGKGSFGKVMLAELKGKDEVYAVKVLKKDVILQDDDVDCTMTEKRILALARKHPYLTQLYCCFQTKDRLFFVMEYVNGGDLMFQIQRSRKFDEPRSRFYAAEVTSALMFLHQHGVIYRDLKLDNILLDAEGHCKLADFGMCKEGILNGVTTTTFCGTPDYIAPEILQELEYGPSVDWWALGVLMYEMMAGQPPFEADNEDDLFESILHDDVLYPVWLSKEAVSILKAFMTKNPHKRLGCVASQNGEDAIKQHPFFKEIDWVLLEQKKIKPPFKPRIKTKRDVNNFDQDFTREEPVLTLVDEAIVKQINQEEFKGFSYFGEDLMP
Method: as §1, §2, §3

M2 (h) = biological target: T2, M2 (h) (Homo sapiens, UniProt P08172); test: CEREP panel M2 (h) antagonist effect, cAMP HTRF; format: cell-based; settings: HCl salt tested; CHO cells, acetylcholine (300 nM)
T2 construct: expressed in transfected cells; host or cells: CHO cells
T2 sequence (P08172 1-466): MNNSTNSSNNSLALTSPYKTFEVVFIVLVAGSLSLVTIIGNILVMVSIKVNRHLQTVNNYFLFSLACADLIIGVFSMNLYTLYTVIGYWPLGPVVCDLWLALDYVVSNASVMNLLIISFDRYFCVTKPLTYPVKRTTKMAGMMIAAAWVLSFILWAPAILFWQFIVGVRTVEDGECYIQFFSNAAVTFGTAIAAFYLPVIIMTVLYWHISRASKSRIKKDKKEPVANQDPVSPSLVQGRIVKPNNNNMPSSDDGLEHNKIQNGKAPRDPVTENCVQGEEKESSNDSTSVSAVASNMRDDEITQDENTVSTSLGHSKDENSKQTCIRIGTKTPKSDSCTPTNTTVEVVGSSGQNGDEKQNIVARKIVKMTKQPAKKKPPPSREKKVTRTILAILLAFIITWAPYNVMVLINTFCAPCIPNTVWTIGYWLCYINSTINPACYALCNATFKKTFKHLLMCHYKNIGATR
Excerpt: (§4) The use of in vitro pharmacological screening against a diverse range of targets (receptors, ion channels, enzymes and transporters) is used to identify undesirable off-target activity that may cause adverse drug reactions in humans. Screening panels (e.g. SafetyScreen44™ Panel, Eurofins) comprise a selection of off-targets linked with known issues in humans that could hinder or halt the development of drug candidates or market withdrawal if discovered after a drug is approved. The HCl salts of the S enantiomer and the R enantiomer of compound A were tested against a panel of such targets.
(§5) The tests were carried out according to the methods described in the following tables and indicated literature references.

μ (MOP) (h) = biological target: T3, μ (MOP) (h) (Homo sapiens, UniProt P35372); test: CEREP panel mu (MOP) (h) agonist effect, cAMP HTRF; format: cell-based; settings: HCl salt tested, CHO cells
T3 construct: expressed in transfected cells; host or cells: CHO cells
Excerpt: as §4, §5

PKCd = PKCd (Homo sapiens, UniProt Q05655); test: Kinase panel 33P-ATP filter assay, PKCd; format: biochemical; settings: HCl salt tested; ATP Conc. 10 μM (Km); read-out: Compound IC50 (nM) PKCd
Method: as §1, §2, §3

Serotonin transporter = biological target: T4, Serotonin transporter (Homo sapiens, UniProt P31645); test: CEREP panel serotonin transporter uptake (h), [3H]5HT incorporation; format: cell-based; settings: HCl salt tested; [3H]5HT incorporation in cells
T4 construct: expressed in transfected cells
Excerpt: as §4, §5

ROCK1 = ROCK1 (Homo sapiens, UniProt Q13464); test: Activity against kinase ROCK1; format: biochemical; settings: comparison of enantiomers

PKN1/PRK1, sequence (Q16512 whole entry): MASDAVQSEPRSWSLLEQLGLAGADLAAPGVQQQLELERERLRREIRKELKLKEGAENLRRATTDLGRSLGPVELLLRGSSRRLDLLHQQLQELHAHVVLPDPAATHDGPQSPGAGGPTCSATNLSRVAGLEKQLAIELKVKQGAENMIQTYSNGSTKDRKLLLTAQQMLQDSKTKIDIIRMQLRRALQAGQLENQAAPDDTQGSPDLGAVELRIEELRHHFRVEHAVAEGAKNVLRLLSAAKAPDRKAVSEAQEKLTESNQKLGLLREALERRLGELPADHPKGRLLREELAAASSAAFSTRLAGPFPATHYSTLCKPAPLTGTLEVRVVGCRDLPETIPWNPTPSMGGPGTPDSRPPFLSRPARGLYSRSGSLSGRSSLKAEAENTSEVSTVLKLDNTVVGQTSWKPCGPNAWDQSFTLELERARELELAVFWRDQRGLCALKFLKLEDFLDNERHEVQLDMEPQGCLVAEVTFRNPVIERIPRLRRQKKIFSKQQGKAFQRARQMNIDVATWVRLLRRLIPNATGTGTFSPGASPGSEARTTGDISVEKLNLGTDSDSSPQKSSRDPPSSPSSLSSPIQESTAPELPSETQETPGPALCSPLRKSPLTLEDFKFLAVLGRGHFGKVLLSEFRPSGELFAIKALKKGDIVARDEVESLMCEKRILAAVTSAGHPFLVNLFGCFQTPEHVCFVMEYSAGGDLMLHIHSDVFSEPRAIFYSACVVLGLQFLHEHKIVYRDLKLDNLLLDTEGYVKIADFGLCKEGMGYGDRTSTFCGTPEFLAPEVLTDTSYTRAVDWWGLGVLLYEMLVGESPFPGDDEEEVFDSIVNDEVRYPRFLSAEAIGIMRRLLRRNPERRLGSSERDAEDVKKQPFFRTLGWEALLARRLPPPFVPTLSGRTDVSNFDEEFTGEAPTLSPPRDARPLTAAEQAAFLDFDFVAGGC
T4 sequence (P31645 whole entry): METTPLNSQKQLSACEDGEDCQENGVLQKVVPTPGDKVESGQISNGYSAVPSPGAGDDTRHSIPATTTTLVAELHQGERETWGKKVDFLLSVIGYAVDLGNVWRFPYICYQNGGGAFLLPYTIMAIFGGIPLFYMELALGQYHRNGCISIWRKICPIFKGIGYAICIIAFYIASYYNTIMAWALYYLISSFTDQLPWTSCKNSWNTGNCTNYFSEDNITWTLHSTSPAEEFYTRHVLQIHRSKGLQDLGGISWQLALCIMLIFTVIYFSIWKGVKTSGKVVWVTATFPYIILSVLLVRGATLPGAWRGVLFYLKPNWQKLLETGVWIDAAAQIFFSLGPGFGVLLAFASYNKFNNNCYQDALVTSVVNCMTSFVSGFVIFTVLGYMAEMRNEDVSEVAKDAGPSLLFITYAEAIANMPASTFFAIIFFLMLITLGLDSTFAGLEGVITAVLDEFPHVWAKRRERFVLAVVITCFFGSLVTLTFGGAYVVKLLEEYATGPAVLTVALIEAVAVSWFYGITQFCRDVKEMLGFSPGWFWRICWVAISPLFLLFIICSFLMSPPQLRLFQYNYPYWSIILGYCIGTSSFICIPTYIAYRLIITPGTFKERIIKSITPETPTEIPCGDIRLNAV
ROCK2, sequence (O75116 whole entry, species assumed): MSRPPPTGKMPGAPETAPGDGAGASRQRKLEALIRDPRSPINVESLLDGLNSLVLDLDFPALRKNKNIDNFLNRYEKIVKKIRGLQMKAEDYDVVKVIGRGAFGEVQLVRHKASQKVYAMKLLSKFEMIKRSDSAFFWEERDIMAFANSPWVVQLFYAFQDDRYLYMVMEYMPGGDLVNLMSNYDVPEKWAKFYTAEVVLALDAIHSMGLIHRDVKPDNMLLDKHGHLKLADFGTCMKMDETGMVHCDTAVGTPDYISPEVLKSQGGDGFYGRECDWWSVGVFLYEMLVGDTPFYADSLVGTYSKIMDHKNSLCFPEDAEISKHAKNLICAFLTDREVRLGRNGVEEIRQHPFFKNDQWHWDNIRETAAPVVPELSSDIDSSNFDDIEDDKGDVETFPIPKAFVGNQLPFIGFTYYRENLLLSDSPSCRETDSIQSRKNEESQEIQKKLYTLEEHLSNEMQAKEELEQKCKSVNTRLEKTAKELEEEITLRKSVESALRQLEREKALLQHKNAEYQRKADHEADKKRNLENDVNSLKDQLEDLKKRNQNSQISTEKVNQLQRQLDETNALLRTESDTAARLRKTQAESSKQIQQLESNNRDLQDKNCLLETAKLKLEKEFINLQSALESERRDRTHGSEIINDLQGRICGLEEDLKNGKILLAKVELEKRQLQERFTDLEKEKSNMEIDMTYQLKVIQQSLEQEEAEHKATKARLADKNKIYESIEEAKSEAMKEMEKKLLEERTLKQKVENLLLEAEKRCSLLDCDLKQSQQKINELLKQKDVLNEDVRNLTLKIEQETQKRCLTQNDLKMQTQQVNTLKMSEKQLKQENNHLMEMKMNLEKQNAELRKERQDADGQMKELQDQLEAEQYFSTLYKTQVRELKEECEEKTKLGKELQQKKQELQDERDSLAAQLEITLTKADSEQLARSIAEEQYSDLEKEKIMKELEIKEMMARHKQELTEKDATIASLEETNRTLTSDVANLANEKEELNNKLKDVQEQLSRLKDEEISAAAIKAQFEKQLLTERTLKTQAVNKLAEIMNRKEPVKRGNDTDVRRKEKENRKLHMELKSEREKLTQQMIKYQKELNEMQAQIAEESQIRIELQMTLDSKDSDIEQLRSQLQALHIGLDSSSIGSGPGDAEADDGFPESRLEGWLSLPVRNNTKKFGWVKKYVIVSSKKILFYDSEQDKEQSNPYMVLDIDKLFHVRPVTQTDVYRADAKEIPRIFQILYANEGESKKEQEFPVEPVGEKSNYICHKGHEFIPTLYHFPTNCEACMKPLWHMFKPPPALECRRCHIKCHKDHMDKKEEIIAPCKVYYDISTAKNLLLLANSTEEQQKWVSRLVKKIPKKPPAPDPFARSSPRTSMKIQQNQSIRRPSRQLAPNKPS
T3 sequence (P35372 whole entry): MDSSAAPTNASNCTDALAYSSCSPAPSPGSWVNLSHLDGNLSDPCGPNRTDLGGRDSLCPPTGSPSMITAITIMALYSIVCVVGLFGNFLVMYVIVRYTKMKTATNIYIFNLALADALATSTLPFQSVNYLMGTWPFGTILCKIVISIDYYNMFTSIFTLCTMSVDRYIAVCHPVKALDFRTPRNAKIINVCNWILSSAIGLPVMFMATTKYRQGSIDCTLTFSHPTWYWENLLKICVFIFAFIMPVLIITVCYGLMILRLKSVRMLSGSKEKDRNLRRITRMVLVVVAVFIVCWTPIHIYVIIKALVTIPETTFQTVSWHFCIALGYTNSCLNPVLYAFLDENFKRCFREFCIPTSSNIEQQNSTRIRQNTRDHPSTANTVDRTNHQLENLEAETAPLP
PKCd, sequence (Q05655 whole entry, species assumed): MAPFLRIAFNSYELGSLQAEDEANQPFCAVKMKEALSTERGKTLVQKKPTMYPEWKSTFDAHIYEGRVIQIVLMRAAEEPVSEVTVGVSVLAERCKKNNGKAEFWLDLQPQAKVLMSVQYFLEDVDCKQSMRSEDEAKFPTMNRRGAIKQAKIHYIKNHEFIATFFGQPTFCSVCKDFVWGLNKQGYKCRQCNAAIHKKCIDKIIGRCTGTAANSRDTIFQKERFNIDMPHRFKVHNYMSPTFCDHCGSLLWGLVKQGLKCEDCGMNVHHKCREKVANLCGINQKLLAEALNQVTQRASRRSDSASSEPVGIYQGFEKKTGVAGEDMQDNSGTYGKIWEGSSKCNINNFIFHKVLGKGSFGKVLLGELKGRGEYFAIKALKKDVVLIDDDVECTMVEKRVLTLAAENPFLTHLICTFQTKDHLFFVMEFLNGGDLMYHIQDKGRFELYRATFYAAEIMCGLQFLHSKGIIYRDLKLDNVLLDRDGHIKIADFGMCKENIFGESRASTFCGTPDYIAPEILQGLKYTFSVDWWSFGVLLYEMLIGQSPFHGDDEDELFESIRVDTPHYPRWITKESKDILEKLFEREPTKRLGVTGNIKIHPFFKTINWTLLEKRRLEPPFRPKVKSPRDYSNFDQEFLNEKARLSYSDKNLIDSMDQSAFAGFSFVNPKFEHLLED

| SMILES | IC50 (PKN1/PRK1) | Difference between activities of S- and R-enantiomer against ROCK2 (ROCK2) | IC50 (PKCepsilon) | IC50 (M2 (h)) | EC50 (μ (MOP) (h)) | IC50 (PKCd) | IC50 (Serotonin transporter) | Difference between activities of S- and R-enantiomer against ROCK1 (ROCK1) |
| --- | --- | --- | --- | --- | --- | --- | --- | --- |
| NCc1ccc(C(=O)Nc2ccncc2F)cc1-c1cccc(C(=O)Nc2ccc(SC[C@@H]3CCOC3=O)cc2)c1 [R-enantiomer] | 7.9 nM | no statistically meaningful difference | 2.9 nM | 6.2 µM | 3 µM | < 0.5 nM | 6 µM | no statistically meaningful difference |
| NCc1ccc(C(=O)Nc2ccncc2F)cc1-c1cccc(C(=O)Nc2ccc(SC[C@H]3CCOC3=O)cc2)c1 [S-enantiomer] | 8.5 nM | no statistically meaningful difference | 6.7 nM | > 100 µM | 84 µM | 0.9 nM | 11 µM | no statistically meaningful difference |
